Converted amounts (≈) assume the structure as drawn.
Experiments:
Type in all cases: cell-based
[1] = system: E. cloacae SR36276; assay: MIC by microbroth dilution (CLSI), strain No. 5; conditions: E. cloacae SR36276, AmpC, highly AmpC-producing strain, ceftazidime-resistant, cefepime-sensitive, cation-adjusted Mueller-Hinton broth; for MIC: Enterobacter cloacae, read-out: minimum inhibitory concentration (MIC), Strain No. 5
Procedure: (§1) The minimum inhibitory concentration (MIC) was measured by the microbroth dilution method in accordance with the procedures recommended by CLSI (Clinical and Laboratory Standards Institute) using 1×10^5 CFU/mL as an inoculum dose and a cation-adjusted Mueller-Hinton broth as a test medium.
(§2) The strains used are as described in the table below.

[2] = system: E. cloacae ATCC13047; assay: MIC by microbroth dilution (CLSI), strain No. 1; conditions: E. cloacae ATCC13047, AmpC, ceftazidime-resistant, cefepime-sensitive, cation-adjusted Mueller-Hinton broth; for MIC: Enterobacter cloacae, read-out: minimum inhibitory concentration (MIC), Strain No. 1
Procedure: as §1, §2

[3] = system: K. pneumoniae NCTC13443; assay: MIC by microbroth dilution (CLSI), strain No. 4; conditions: K. pneumoniae NCTC13443, NDM-1, MBL-producing strain, carbapenem-resistant, cation-adjusted Mueller-Hinton broth; for MIC: Klebsiella pneumoniae, read-out: minimum inhibitory concentration (MIC), Strain No. 4
Procedure: as §1, §2

[4] = system: E. coli SR09613; assay: MIC by microbroth dilution (CLSI), strain No. 6; conditions: for MIC: Escherichia coli, SR09613, read-out: minimum inhibitory concentration (MIC), Strain No. 6
Procedure: as §1, §2

[5] = system: K. pneumoniae SR01453; assay: MIC by microbroth dilution (CLSI), strain No. 3; conditions: K. pneumoniae SR01453, NDM-1, MBL-producing strain, carbapenem-resistant, cation-adjusted Mueller-Hinton broth; for MIC: Klebsiella pneumoniae, read-out: minimum inhibitory concentration (MIC), Strain No. 3
Procedure: as §1, §2

[6] = system: E. coli SR09616; assay: MIC by microbroth dilution (CLSI), strain No. 7; conditions: for MIC: Escherichia coli, SR09616, read-out: minimum inhibitory concentration (MIC), Strain No. 7
Procedure: as §1, §2

[7] = system: K. pneumoniae SR01358; assay: MIC by microbroth dilution (CLSI), strain No. 2; conditions: K. pneumoniae SR01358, KPC-2, KPC-producing strain, cation-adjusted Mueller-Hinton broth; for MIC: Klebsiella pneumoniae, read-out: minimum inhibitory concentration (MIC), Strain No. 2
Procedure: as §1, §2

For `Nc1nc(/C(=N/OCS(=O)(=O)O)C(=O)N[C@@H]2C(=O)N3[C@@H]2[S@@+](O)C[C@@H]2CC(=O)O[C@@]23C(=O)O)cs1` [Compound I-047], the “minimum inhibitory concentration (MIC), Strain No. 5” value [1] was 0.25 µg/mL, the “minimum inhibitory concentration (MIC), Strain No. 1” value [2] was 0.25 µg/mL and the “minimum inhibitory concentration (MIC), Strain No. 4” value [3] was 2 µg/mL. The “minimum inhibitory concentration (MIC), Strain No. 6” value ([4]; E. coli SR09613, CMY-2 type, plasmid AmpC-producing strain, ceftazidime-resistant, cefepime-sensitive, cation-adjusted Mueller-Hinton broth) was 0.063 µg/mL, the “minimum inhibitory concentration (MIC), Strain No. 3” value [5] was 0.25 µg/mL and the “minimum inhibitory concentration (MIC), Strain No. 7” value ([6]; E. coli SR09616, CMY-2 type, plasmid AmpC-producing strain, ceftazidime-resistant, cefepime-sensitive, cation-adjusted Mueller-Hinton broth) was 0.25 µg/mL.

Compound `CC(C)(O/N=C(\C(=O)N[C@@H]1C(=O)N2[C@@H]1[S@@+]([O-])C[C@@H]1CC(=O)O[C@@]12C(=O)[O-])c1csc(N)n1)C(=O)[O-].[Na+].[Na+]` [Compound I-007] has an MIC [1] of 0.25 µg/mL, an MIC [2] of 0.25 µg/mL and an MIC [3] of 2 µg/mL. For the same compound, the MIC [7] was 0.5 µg/mL and the MIC [5] was 0.5 µg/mL.

`Nc1nc(/C(=N/OC2(C(=O)[O-])CC2)C(=O)N[C@@H]2C(=O)N3[C@@H]2[S@@+]([O-])C[C@@H]2CC(=O)O[C@@]23C(=O)[O-])cs1.[Na+].[Na+]` [Compound I-015] was tested, and the MIC [1] was 0.125 µg/mL, the MIC [2] was 0.125 µg/mL and the MIC [3] was 1 µg/mL. It also gave an MIC [7] of 0.5 µg/mL and an MIC [5] of 0.125 µg/mL.

In the case of `Nc1nc(/C(=N/OC[C@@H](O)CO)C(=O)N[C@@H]2C(=O)N3[C@@H]2[S@@+]([O-])C[C@@H]2CC(=O)O[C@@]23C(=O)O)cs1` [Compound I-044], the MIC [1] is reported as 1 µg/mL (≈ 1.93 µM), the MIC [2] is reported as 0.5 µg/mL (≈ 0.966 µM) and the MIC [3] is reported as 2 µg/mL (≈ 3.86 µM). The MIC [4] was 0.25 µg/mL (≈ 0.483 µM), the MIC [5] was 1 µg/mL (≈ 1.93 µM) and the MIC [6] was 1 µg/mL (≈ 1.93 µM).

In the case of `Nc1nc(/C(=N/OCCC(=O)O)C(=O)N[C@@H]2C(=O)N3[C@@H]2[S@@+]([O-])C[C@@H]2CC(=O)O[C@@]23C(=O)[O-])cs1.[Na+]` [Compound I-061], the “minimum inhibitory concentration (MIC), Strain No. 5” value [1] is reported as 0.25 µg/mL, the “minimum inhibitory concentration (MIC), Strain No. 1” value [2] is reported as 0.125 µg/mL and the “minimum inhibitory concentration (MIC), Strain No. 4” value [3] is reported as 4 µg/mL. The “minimum inhibitory concentration (MIC), Strain No. 2” value [7] was 0.5 µg/mL and the “minimum inhibitory concentration (MIC), Strain No. 3” value [5] was 0.25 µg/mL.

Work on `NC(=O)CO/N=C(\C(=O)N[C@@H]1C(=O)N2[C@@H]1[S@@+]([O-])C[C@@H]1CC(=O)O[C@@]12C(=O)[O-])c1csc(N)n1.[Na+]` [Compound I-060] yielded an MIC [1] of 0.5 µg/mL, an MIC [2] of 0.125 µg/mL and an MIC [3] of 4 µg/mL. It also gave an MIC [7] of 0.5 µg/mL and an MIC [5] of 0.125 µg/mL.

With `Nc1nc(/C(=N/OCc2cccnc2)C(=O)N[C@@H]2C(=O)N3[C@@H]2[S@@+]([O-])C[C@@H]2CC(=O)O[C@@]23C(=O)O)cs1` [Compound I-042] the MIC [4] was 4 µg/mL (≈ 7.48 µM), the MIC [5] was 2 µg/mL (≈ 3.74 µM) and the MIC [6] was 4 µg/mL (≈ 7.48 µM).

In the case of `Nc1nc(/C(=N/OC(CO)CO)C(=O)N[C@@H]2C(=O)N3[C@@H]2[S@@+]([O-])C[C@@H]2CC(=O)O[C@@]23C(=O)O)cs1` [Compound I-052], the MIC [1] is reported as 0.125 µg/mL (≈ 0.242 µM), the MIC [2] is reported as 0.063 µg/mL (≈ 0.122 µM) and the MIC [3] is reported as 0.5 µg/mL (≈ 0.966 µM). The MIC [4] was at most 0.031 µg/mL, the MIC [5] was at most 0.031 µg/mL and the MIC [6] was 0.063 µg/mL (≈ 0.122 µM).

In the case of `Nc1nc(/C(=N/O[C@@H](CO)C(=O)O)C(=O)N[C@@H]2C(=O)N3[C@@H]2[S@@+]([O-])C[C@@H]2CC(=O)O[C@@]23C(=O)O)cs1` [Compound I-027], the MIC [1] is reported as at most 0.031 µg/mL, the MIC [2] is reported as 0.063 µg/mL (≈ 0.119 µM) and the MIC [3] is reported as 1 µg/mL (≈ 1.88 µM). For the same compound, the MIC [7] was 0.25 µg/mL (≈ 0.47 µM) and the MIC [5] was 0.063 µg/mL (≈ 0.119 µM).

With `CONC(=O)CO/N=C(\C(=O)N[C@@H]1C(=O)N2[C@@H]1[S+](O)C[C@@H]1CC(=O)O[C@@]12C(=O)O)c1csc(N)n1` (stereo partly shown) [Compound I-048] the MIC [1] was 1 µg/mL, the MIC [2] was 0.25 µg/mL and the MIC [3] was 4 µg/mL. For the same compound, the MIC [4] was 0.125 µg/mL, the MIC [5] was 0.125 µg/mL and the MIC [6] was 0.5 µg/mL.

With `Nc1nc(/C(=N/OC[C@H](O)CO)C(=O)N[C@@H]2C(=O)N3[C@@H]2[S@@+]([O-])C[C@@H]2CC(=O)O[C@@]23C(=O)O)cs1` [Compound I-050] the MIC [1] was 1 µg/mL (≈ 1.93 µM), the MIC [2] was 0.5 µg/mL (≈ 0.966 µM) and the MIC [3] was 4 µg/mL (≈ 7.73 µM). It also gave an MIC [4] of 0.5 µg/mL (≈ 0.966 µM), an MIC [5] of 0.5 µg/mL (≈ 0.966 µM) and an MIC [6] of 4 µg/mL (≈ 7.73 µM).

Reference: patent publication US20180186814A1, “TRICYCLIC COMPOUND HAVING SULFINYL OR SULFONYL” (Shionogi & Co., Ltd., priority 2015, published 2018)
